Experimental data taken from patent US9476099B2 (TRUSTEES OF DARTMOUTH COLLEGE, priority 2012, dated 2016).

System: gene promoters in NT2/D1-R1 control and DNMT3B knockdown cells
Assay: Genome-wide promoter methylation analysis, HumanMethylation27 BeadChip (Table 15)
Assay type: cell-based, human
Conditions: sh-3b + 5aza
Experimental: DNA methylation analysis was performed in samples in triplicate using the […] […] assay with the HumanMethylation27 BeadChip ([…]) and the BeadChip was scanned on the BeadArray Reader ([…]), according to the manufacturer's instructions. Raw data was normalized and analyzed with Genome Studio software ([…]). The HumanMethylation27 BeadChip assays 27,578 CpGs covering more than 14,000 genes, mostly from promoter regions. […] Hierarchical clustering was performed as stated above. HumanMethylation27 BeadChip data and gene expression microarray data were submitted to NCBI GEO.

SMILES: Nc1ncn([C@H]2C[C@H](O)[C@@H](CO)O2)c(=O)n1 [5aza]
- ABCC1 cg20158248 promoter methylation Mean: 0.458
- ACP1 cg27226618 promoter methylation Mean: 0.490
- ADCY4 cg16761581 promoter methylation Mean: 0.297
- ADRA2A cg26926521 promoter methylation Mean: 0.682
- ALDH1A3 cg19224278 promoter methylation Mean: 0.310
- ALKBH4 cg07404418 promoter methylation Mean: 0.312
- ALX4 cg04549333 promoter methylation Mean: 0.880
- ALX4 cg04970352 promoter methylation Mean: 0.645
- ALX4 cg19358442 promoter methylation Mean: 0.834
- ANKRD13C cg19342782 promoter methylation Mean: 0.372
- ANKRD45 cg15883716 promoter methylation Mean: 0.793
- APC cg16970232 promoter methylation Mean: 0.269
- BLOC1S2 cg26610808 promoter methylation Mean: 0.526
- BTBD5 cg00660989 promoter methylation Mean: 0.214
- BTNL8 cg24024214 promoter methylation Mean: 0.781
- C1QL1 cg13818573 promoter methylation Mean: 0.255
- C1orf188 cg15731815 promoter methylation Mean: 0.321
- C10orf107 cg16063112 promoter methylation Mean: 0.230
- C14orf173 cg24404909 promoter methylation Mean: 0.248
- C16orf60 cg17858663 promoter methylation Mean: 0.177
- C19orf4 cg07379574 promoter methylation Mean: 0.733
- C19orf22 cg18022193 promoter methylation Mean: 0.180
- CAMK1G cg27337148 promoter methylation Mean: 0.715
- CD58 cg21039631 promoter methylation Mean: 0.325
- CDKN2B cg04675937 promoter methylation Mean: 0.167
- CDKN2B cg08390209 promoter methylation Mean: 0.150
- CDX1 cg15452204 promoter methylation Mean: 0.424
- CEACAM4 cg10237469 promoter methylation Mean: 0.430
- CEACAM7 cg19623751 promoter methylation Mean: 0.616
- CGI-38 cg13067215 promoter methylation Mean: 0.274
- CHD5 cg00282347 promoter methylation Mean: 0.682
- CHMP2A cg14042128 promoter methylation Mean: 0.354
- COL11A1 cg12884406 promoter methylation Mean: 0.331
- COPS7B cg05422352 promoter methylation Mean: 0.338
- CRSP7 cg24459023 promoter methylation Mean: 0.268
- CSPG3 cg06952310 promoter methylation Mean: 0.350
- CSTF2T cg06712026 promoter methylation Mean: 0.277
- CTAGE1 cg02847216 promoter methylation Mean: 0.727
- CUL3 cg09509863 promoter methylation Mean: 0.309
- CYP4F12 cg25813714 promoter methylation Mean: 0.721
- DCTD cg14892066 promoter methylation Mean: 0.171
- DDEF2 cg22190705 promoter methylation Mean: 0.187
- DEFB118 cg03014957 promoter methylation Mean: 0.548
- DNASE2 cg07955356 promoter methylation Mean: 0.207
- DPH1 cg11516377 promoter methylation Mean: 0.319
- DYRK1B cg18851831 promoter methylation Mean: 0.820
- EIF2B3 cg16604218 promoter methylation Mean: 0.360
- ELSPBP1 cg19404979 promoter methylation Mean: 0.406
- ENOSF1 cg16112050 promoter methylation Mean: 0.724
- EPN3 cg24006361 promoter methylation Mean: 0.739
- EREG cg19308222 promoter methylation Mean: 0.252
- FAM111B cg13864937 promoter methylation Mean: 0.366
- FLJ10726 cg14145762 promoter methylation Mean: 0.292
- FLJ11200 cg09001953 promoter methylation Mean: 0.335
- FLJ23514 cg16404106 promoter methylation Mean: 0.436
- FLRT3 cg23127998 promoter methylation Mean: 0.249
- FLT3LG cg01667384 promoter methylation Mean: 0.179
- FXYD7 cg22392666 promoter methylation Mean: 0.720
- G10 cg02798801 promoter methylation Mean: 0.349
- GABRB2 cg16509658 promoter methylation Mean: 0.176
- GALNT4 cg16606638 promoter methylation Mean: 0.245
- GAS8 cg03634997 promoter methylation Mean: 0.814
- GBX2 cg23095584 promoter methylation Mean: 0.268
- GNAS cg27661264 promoter methylation Mean: 0.334
- GRB10 cg26163537 promoter methylation Mean: 0.310
- GUP1 cg24938727 promoter methylation Mean: 0.441
- HACE1 cg23047681 promoter methylation Mean: 0.156
- HGF cg06745740 promoter methylation Mean: 0.404
- HNRNPG-T cg22062068 promoter methylation Mean: 0.650
- HOXB4 cg25145670 promoter methylation Mean: 0.311
- HRASLS cg08376864 promoter methylation Mean: 0.309
- HYPK cg00480356 promoter methylation Mean: 0.630
- ICAM1 cg08607082 promoter methylation Mean: 0.149
- IFI16 cg07463059 promoter methylation Mean: 0.386
- IFI44 cg07107453 promoter methylation Mean: 0.330
- IFNA2 cg13235447 promoter methylation Mean: 0.480
- IGF2AS cg20792294 promoter methylation Mean: 0.211
- IGFBP5 cg19008649 promoter methylation Mean: 0.264
- IGSF9 cg19111262 promoter methylation Mean: 0.576
- IHH cg17178336 promoter methylation Mean: 0.504
- IL2RG cg01361446 promoter methylation Mean: 0.834
- IL18 cg11304234 promoter methylation Mean: 0.478
- INPP5B cg10784030 promoter methylation Mean: 0.251
- ITGB3BP cg18464559 promoter methylation Mean: 0.121
- KA21 cg23776012 promoter methylation Mean: 0.410
- KCNA3 cg03483626 promoter methylation Mean: 0.208
- KCNAB3 cg14918082 promoter methylation Mean: 0.534
- KCNB2 cg11754206 promoter methylation Mean: 0.377
- KCNK10 cg17671157 promoter methylation Mean: 0.820
- KLK7 cg19953406 promoter methylation Mean: 0.680
- LAMB1 cg10064162 promoter methylation Mean: 0.295
- LDHD cg24429836 promoter methylation Mean: 0.510
- LIG4 cg08216792 promoter methylation Mean: 0.266
- LYNX1 cg24046110 promoter methylation Mean: 0.288
- MC3R cg19226099 promoter methylation Mean: 0.784
- MGC26856 cg07684809 promoter methylation Mean: 0.260
- MLNR cg02620013 promoter methylation Mean: 0.418
- MPHOSPH6 cg16119274 promoter methylation Mean: 0.280
- MSX1 cg03199651 promoter methylation Mean: 0.204
- MYOD1 cg24322623 promoter methylation Mean: 0.650
- NCKIPSD cg04244987 promoter methylation Mean: 0.242
- NDP cg11614809 promoter methylation Mean: 0.579
- NEFH cg16042149 promoter methylation Mean: 0.776
- NEIL2 cg14329976 promoter methylation Mean: 0.226
- NME5 cg13707560 promoter methylation Mean: 0.911
- NME5 cg25507001 promoter methylation Mean: 0.671
- NOC3L cg07270175 promoter methylation Mean: 0.464
- NOX4 cg17063929 promoter methylation Mean: 0.575
- NPAS1 cg09628601 promoter methylation Mean: 0.303
- NRXN1 cg10917619 promoter methylation Mean: 0.594
- OR1N1 cg14598387 promoter methylation Mean: 0.339
- OR10J1 cg15700197 promoter methylation Mean: 0.444
- PACS1 cg01663295 promoter methylation Mean: 0.329
- PCDHB13 cg14592099 promoter methylation Mean: 0.423
- PCDHB13 cg24435562 promoter methylation Mean: 0.273
- PCDHGA12 cg11647681 promoter methylation Mean: 0.623
- PCGF5 cg17001035 promoter methylation Mean: 0.664
- PEPD cg06546607 promoter methylation Mean: 0.229
- PEX5L cg02430692 promoter methylation Mean: 0.322
- PI3 cg02442161 promoter methylation Mean: 0.625
- PIGL cg05310071 promoter methylation Mean: 0.231
- POU3F3 cg20291049 promoter methylation Mean: 0.268
- POU4F2 cg24199834 promoter methylation Mean: 0.231
- PTCH2 cg15329642 promoter methylation Mean: 0.576
- PTPN5 cg17233601 promoter methylation Mean: 0.498
- RASGEF1A cg07871503 promoter methylation Mean: 0.574
- RBPSUHL cg21835643 promoter methylation Mean: 0.665
- REM1 cg12153542 promoter methylation Mean: 0.456
- REM1 cg26299767 promoter methylation Mean: 0.440
- RLN3R1 cg12238343 promoter methylation Mean: 0.451
- RPL39L cg07441272 promoter methylation Mean: 0.505
- RRM2B cg07125123 promoter methylation Mean: 0.288
- RYR1 cg05471297 promoter methylation Mean: 0.272
- S100A12 cg02813121 promoter methylation Mean: 0.719
- SCUBE2 cg01081263 promoter methylation Mean: 0.505
- SCUBE2 cg19237879 promoter methylation Mean: 0.493
- SEMA3E cg08274234 promoter methylation Mean: 0.207
- SEMA6C cg01958916 promoter methylation Mean: 0.255
- SEPN1 cg21187265 promoter methylation Mean: 0.381
